From patent US9932354B2, “Imidazo-oxadiazole and imidazo-thiadiazole derivatives” (Ares Trading S.A., priority 2012, dated 2018)

Legend:
[1] = test system: Amyloid-β peptide release (AβTotal), HEK cells overexpressing APP (HEK-APP); test: Amyloid-β peptide release (AβTotal) assay, AlphaLISA on supernatant of HEK-APP cells; assay type: cell-based; details: ratio Abtot vs Ab42, HEK-APP cells, 24 h
Procedure: (§1) Amyloid-β Peptide Release (Aβ42 & AβTotal) Assay to Determine IC50 Values.
(§2) Compounds are dissolved in and diluted in 100% DMSO and incubated with HEK-APP cells for 24 h at 37° C. in 5% CO2. The supernatant from HEK-APP cells are mixed with antibodies: for Aβ42 detection: AlphaLISA Amyloid-β 1-42 Kit (Perkin Elmer AL203L) Anti-Amyloid β1-42-specific antibody acceptor beads, biotinylated anti-Amyloid-“β1-42” antibody and streptavidin (SA) donor beads diluted in AlphaLISA buffer (to the instructions of the supplier). For Aβ total detection: Custom Anti-Amyloid-βtotal acceptor beads (6E10 acceptor beads), biotinylated anti-Amyloid “β1-42” antibody (Perkin Elmer AL203L) and streptavidin (SA) donor beads diluted in AlphaLISA buffer (to the instructions of the supplier). After addition of supernatant to the antibody mix, the assay is incubated for 4.5 h. Amyloid-β peptide release (Aβ42 & AβTotal) is measured with a Pherastar FS (BMG) multimode reader using the alphascreen module.

[2] = test system: Amyloid-β peptide release (Aβ42), HEK cells overexpressing APP (HEK-APP); test: Amyloid-β peptide release (Aβ42) assay, AlphaLISA on supernatant of HEK-APP cells; assay type: cell-based; details: Homo sapiens, HEK293, 24 h incubation with compound, read-out: Ab42 IC50 Ranges
Procedure: as §1, §2

Question: `Cc1cc(-c2nn3c(C)ncc3o2)ccc1NC(=O)Cc1ccc(C(F)(F)F)cc1` [Example 39, N-(2-methyl-4-(5-methylimidazo[5,1-b][1,3,4]oxadiazol-2-yl)phenyl)-2-(4-(trifluoromethyl)phenyl)acetamide] was tested. Which Abtot/Ab42 selectivity ranges [1] did it give?
Answer: Its Abtot/Ab42 selectivity ranges is “b (b: 100 fold > selectivity ≥ 50 fold)”.

Question: And the IC50 [2]?
Answer: The IC50 was 500 to 1000 nM.

Question: What does the source list for `Cc1ncc2oc(-c3ccc(NC(=O)Cc4ccc(Cl)cc4Cl)cn3)nn12` [Example 82]?
Answer: Abtot/Ab42 selectivity ranges [1]: c (c: 50 fold > selectivity ≥ 10 fold); IC50 [2]: 1000 to 2200 nM

Question: Which Abtot/Ab42 selectivity ranges [1] does the source give for `Cc1ncc2oc(-c3ccc(Nc4nc5n(n4)CCCC5c4ccc(Cl)cc4Cl)cc3)nn12` (stereo not shown) [Example 25, [8-(2,4-Dichloro-phenyl)-5,6,7,8-tetrahydro-[1,2,4]triazolo[1,5-a]pyridin-2-yl]-[4-(5-methyl-imidazo[5,1-b][1,2,4]oxadiazol-2-yl)-phenyl]-amine] here?
Answer: The Abtot/Ab42 selectivity ranges was “c (c: 50 fold > selectivity ≥ 10 fold)”.

Question: What about the IC50 [2] of the same molecule?
Answer: The IC50 was 500 to 1000 nM.

Question: What does the source list for `COc1cc(C(=O)NCc2ccc(Cl)c(Cl)c2)ccc1-c1nn2c(C)ncc2o1` [Example 19, N-(3,4-Dichloro-benzyl)-3-methoxy-4-(5-methyl-imidazo[5,1-b][1,2,4]oxadiazol-2-yl)-benzamide]?
Answer: Abtot/Ab42 selectivity ranges [1]: c (c: 50 fold > selectivity ≥ 10 fold); IC50 [2]: 1000 to 2200 nM

Question: Which Abtot/Ab42 selectivity ranges [1] does the source give for `Cc1ncc2sc(C(=O)N3CCCC3c3ccc(Br)cc3)nn12` (stereo not shown) [Example 110, [2-(4-Bromo-phenyl)-pyrrolidin-1-yl]-(5-methyl-imidazo[5,1-b][1,3,4]thiadiazol-2-yl)-methanone] here?
Answer: Its Abtot/Ab42 selectivity ranges is “d (d: 10 fold > selectivity)”.

Question: What about the IC50 [2] of the same molecule?
Answer: The IC50 was < 100 nM.

Question: How did the Abtot/Ab42 selectivity ranges [1] turn out when `Cc1nc(C)n2nc(-c3ccc(C(=O)NCc4cccc5ccccc45)cc3)oc12` [Example 22, 4-(5,7-Dimethyl-imidazo[5,1-b][1,2,4]oxadiazol-2-yl)-N-naphthalen-1-ylmethyl-benzamide] was run?
Answer: Its Abtot/Ab42 selectivity ranges is “c (c: 50 fold > selectivity ≥ 10 fold)”.

Question: And the IC50 [2]?
Answer: The IC50 was 500 to 1000 nM.

Question: `Cc1cc(-c2nn3c(C)ncc3o2)ccc1NC(=O)Cc1ccc(OC(F)(F)F)cc1` [Example 45, N-(2-methyl-4-(5-methylimidazo[5,1-b][1,3,4]oxadiazol-2-yl)phenyl)-2-(4-(trifluoromethoxy)phenyl)acetamide] was tested. Which Abtot/Ab42 selectivity ranges [1] did it give?
Answer: Its Abtot/Ab42 selectivity ranges is “b (b: 100 fold > selectivity ≥ 50 fold)”.

Question: And the IC50 [2]?
Answer: Its IC50 is 500 to 1000 nM.

Question: What does the source list for `Cc1ncc2oc(-c3ccc(Nc4ccnc(NCc5ccccc5)n4)cc3)nn12` [Example 72, N2-benzyl-N4-(4-(5-methylimidazo[5,1-b][1,3,4]oxadiazol-2-yl)phenyl)pyrimidine-2,4-diamine]?
Answer: Abtot/Ab42 selectivity ranges [1]: d (d: 10 fold > selectivity); IC50 [2]: 1000 to 2200 nM

Question: How did the Abtot/Ab42 selectivity ranges [1] turn out when `Cc1cccc(CNc2ccnc(Nc3ccc(-c4nn5c(C)ncc5o4)cc3)n2)c1` [Example 75, N4-(3-methylbenzyl)-N2-(4-(5-methylimidazo[5,1-b][1,3,4]oxadiazol-2-yl)phenyl)pyrimidine-2,4-diamine] was run?
Answer: The Abtot/Ab42 selectivity ranges was “d (d: 10 fold > selectivity)”.

Question: And the IC50 [2]?
Answer: Its IC50 is 1000 to 2200 nM.

Question: How did the Abtot/Ab42 selectivity ranges [1] turn out when `COc1cc(NC(=O)Cc2ccccc2)ccc1-c1nn2c(C)ncc2o1` [Example 36, N-(3-methoxy-4-(5-methylimidazo[5,1-b][1,3,4]oxadiazol-2-yl)phenyl)-2-phenylacetamide] was run?
Answer: Its Abtot/Ab42 selectivity ranges is “c (c: 50 fold > selectivity ≥ 10 fold)”.

Question: And the IC50 [2]?
Answer: Its IC50 is 1000 to 2200 nM.

Question: What does the source list for `Cc1ncc2oc(-c3ccc(NC(=O)Cc4ccc(OC(F)(F)F)cc4)cn3)nn12` [Example 11, N-[6-(5-Methyl-imidazo[5,1-b][1,2,4]oxadiazol-2-yl)-pyridin-3-yl]-2-(4-trifluoromethoxy-phenyl)-acetamide]?
Answer: Abtot/Ab42 selectivity ranges [1]: b (b: 100 fold > selectivity ≥ 50 fold); IC50 [2]: 100 to 500 nM

Question: How did the Abtot/Ab42 selectivity ranges [1] turn out when `Cc1ncc2oc(-c3ccc(NC(=O)Cc4ccc(C(F)(F)F)cc4Br)cc3)nn12` [Example 5, 2-(2-Bromo-4-trifluoromethyl-phenyl)-N-[4-(5-methyl-imidazo[5,1-b][1,2,4]oxadiazol-2-yl)-phenyl]-acetamide] was run?
Answer: Its Abtot/Ab42 selectivity ranges is “c (c: 50 fold > selectivity ≥ 10 fold)”.

Question: What about the IC50 [2] of the same molecule?
Answer: The IC50 was 500 to 1000 nM.

Question: Which results are given for `Cc1ncc2sc(C(=O)NCCc3c[nH]c4ccccc34)nn12` [Example 94, 5-Methyl-imidazo[5,1-b][1,3,4]thiadiazole-2-carboxylic acid [2-(1H-indol-3-yl)-ethyl]-amide]?
Answer: Abtot/Ab42 selectivity ranges [1]: d (d: 10 fold > selectivity); IC50 [2]: 500 to 1000 nM

Question: `Cc1ncc2oc(-c3ccc(NC(=O)Cc4cccc5ccccc45)cc3)nn12` [Example 71, N-(4-(5-methylimidazo[5,1-b][1,3,4]oxadiazol-2-yl)phenyl)-2-(naphthalen-1-yl)acetamide] was tested. Which Abtot/Ab42 selectivity ranges [1] did it give?
Answer: Its Abtot/Ab42 selectivity ranges is “b (b: 100 fold > selectivity ≥ 50 fold)”.

Question: What about the IC50 [2] of the same molecule?
Answer: The IC50 was 500 to 1000 nM.

Question: `Cc1ncc2oc(-c3ccc(NC(=O)Nc4ccc(OC(F)(F)F)cc4)cc3)nn12` [Example 59, 1-[4-(5-Methyl-imidazo[5,1-b][1,2,4]oxadiazol-2-yl)-phenyl]-3-(4-trifluoromethoxy-phenyl)-urea] was tested. Which Abtot/Ab42 selectivity ranges [1] did it give?
Answer: The Abtot/Ab42 selectivity ranges was “c (c: 50 fold > selectivity ≥ 10 fold)”.

Question: What about the IC50 [2] of the same molecule?
Answer: The IC50 was 1000 to 2200 nM.

Question: For `COc1cc(NC(=O)Cc2cccc(Cl)c2)ccc1-c1nn2c(C)ncc2o1` [Example 33, 2-(3-chlorophenyl)-N-(3-methoxy-4-(5-methylimidazo[5,1-b] [1,3,4]oxadiazol-2-yl)phenyl)acetamide], which Abtot/Ab42 selectivity ranges [1] is on record?
Answer: The Abtot/Ab42 selectivity ranges was “b (b: 100 fold > selectivity ≥ 50 fold)”.

Question: What about the IC50 [2] of the same molecule?
Answer: The IC50 was 500 to 1000 nM.

Question: Which Abtot/Ab42 selectivity ranges [1] does the source give for `Cc1ncc2oc(-c3ccc(NC(=O)Cc4ccccc4C(F)(F)F)cc3)nn12` [Example 1, N-[4-(5-Methyl-imidazo[5,1-b][1,2,4]oxadiazol-2-yl)-phenyl]-2-(2-trifluoromethyl-phenyl)-acetamide] here?
Answer: Its Abtot/Ab42 selectivity ranges is “b (b: 100 fold > selectivity ≥ 50 fold)”.

Question: And the IC50 [2]?
Answer: Its IC50 is 500 to 1000 nM.

Question: How did the Abtot/Ab42 selectivity ranges [1] turn out when `Cc1ncc2sc(C(=O)N3CCCCC3Cc3ccccc3)nn12` (stereo not shown) [Example 117, (2-Benzyl-piperidin-1-yl)-(5-methyl-imidazo[5,1-b][1,3,4]thiadiazol-2-yl)-methanone] was run?
Answer: Its Abtot/Ab42 selectivity ranges is “d (d: 10 fold > selectivity)”.

Question: What about the IC50 [2] of the same molecule?
Answer: Its IC50 is 1000 to 2200 nM.

Question: How did the Abtot/Ab42 selectivity ranges [1] turn out when `COc1c(F)ccc(CC(=O)Nc2ccc(-c3nn4c(C)ncc4o3)cc2)c1F` [Example 68, 2-(2,4-difluoro-3-methoxyphenyl)-N-(4-(5-methylimidazo[5,1-b][1,3,4]oxadiazol-2-yl)phenyl)acetamide] was run?
Answer: The Abtot/Ab42 selectivity ranges was “b (b: 100 fold > selectivity ≥ 50 fold)”.

Question: What about the IC50 [2] of the same molecule?
Answer: Its IC50 is 500 to 1000 nM.

Question: What does the source list for `CCN(Cc1ccccc1)C(=O)c1nn2c(C)ncc2s1` [Example 99, 5-Methyl-imidazo[5,1-b][1,3,4]thiadiazole-2-carboxylic acid benzyl-ethyl-amide]?
Answer: Abtot/Ab42 selectivity ranges [1]: d (d: 10 fold > selectivity); IC50 [2]: 1000 to 2200 nM

Question: How did the Abtot/Ab42 selectivity ranges [1] turn out when `Cc1cc(-c2nn3c(C)ncc3o2)ccc1NC(=O)Cc1ccc(Cl)cc1` [Example 44, 2-(4-chlorophenyl)-N-(2-methyl-4-(5-methylimidazo[5,1-b][1,3,4]oxadiazol-2-yl)phenyl)acetamide] was run?
Answer: The Abtot/Ab42 selectivity ranges was “b (b: 100 fold > selectivity ≥ 50 fold)”.

Question: What about the IC50 [2] of the same molecule?
Answer: The IC50 was 500 to 1000 nM.

Question: Which Abtot/Ab42 selectivity ranges [1] does the source give for `Cc1ncc2sc(C(=O)NCc3ccc(Oc4ccc(F)cc4)cc3)nn12` [Example 106, 5-Methyl-imidazo[5,1-b][1,3,4]thiadiazole-2-carboxylic acid 4-(4-fluoro-phenoxy)-benzylamide] here?
Answer: Its Abtot/Ab42 selectivity ranges is “b (b: 100 fold > selectivity ≥ 50 fold)”.

Question: What about the IC50 [2] of the same molecule?
Answer: Its IC50 is 100 to 500 nM.

Question: Which results are given for `Cc1ncc2oc(-c3ccc(NC(=O)Nc4ccccc4C(F)(F)F)cc3)nn12` [Example 58, 1-[4-(5-Methyl-imidazo[5,1-b][1,2,4]oxadiazol-2-yl)-phenyl]-3-(2-trifluoromethyl-phenyl)-urea]?
Answer: Abtot/Ab42 selectivity ranges [1]: d (d: 10 fold > selectivity); IC50 [2]: 500 to 1000 nM

Question: With `COc1ccccc1CC(=O)Nc1ccc(-c2nn3c(C)ncc3o2)cc1` [Example 53, 2-(2-Methoxy-phenyl)-N-[4-(5-methyl-imidazo[5,1-b][1,2,4]oxadiazol-2-yl)-phenyl]-acetamide] as the molecule, how does the Abtot/Ab42 selectivity ranges [1] read?
Answer: Its Abtot/Ab42 selectivity ranges is “d (d: 10 fold > selectivity)”.

Question: What about the IC50 [2] of the same molecule?
Answer: Its IC50 is 1000 to 2200 nM.

Question: Which results are given for `Cc1cc(-c2nn3c(C)ncc3o2)ccc1NC(=O)Cc1cccc(Cl)c1` [Example 43, 2-(3-chlorophenyl)-N-(2-methyl-4-(5-methylimidazo[5,1-b][1,3,4]oxadiazol-2-yl)phenyl)acetamide]?
Answer: Abtot/Ab42 selectivity ranges [1]: c (c: 50 fold > selectivity ≥ 10 fold); IC50 [2]: 1000 to 2200 nM

Question: What does the source list for `Cc1ncc2oc(-c3ccc(NC(=O)Cc4ccc(F)cc4Cl)cc3)nn12` [Example 65, 2-(2-chloro-4-fluorophenyl)-N-(4-(5-methylimidazo[5,1-b][1,3,4]oxadiazol-2-yl)phenyl)acetamide]?
Answer: Abtot/Ab42 selectivity ranges [1]: c (c: 50 fold > selectivity ≥ 10 fold); IC50 [2]: 1000 to 2200 nM

Question: With `Cc1ccc(C)c(CC(=O)Nc2ccc(-c3nn4c(C)ncc4o3)nc2)c1` [Example 10, 2-(2,5-Dimethyl-phenyl)-N-[6-(5-methyl-imidazo [5,1-b][1,2,4]oxadiazol-2-yl)-pyridin-3-yl]-acetamide] as the molecule, how does the Abtot/Ab42 selectivity ranges [1] read?
Answer: Its Abtot/Ab42 selectivity ranges is “c (c: 50 fold > selectivity ≥ 10 fold)”.

Question: And the IC50 [2]?
Answer: Its IC50 is 1000 to 2200 nM.

Question: What does the source list for `Cc1ncc2oc(-c3ccc(C(=O)NCc4cccc5ccccc45)cc3)nn12` [Example 86, 4-(5-methylimidazo[5,1-b][1,3,4]oxadiazol-2-yl)-N-(naphthalen-1-ylmethyl)benzamide]?
Answer: Abtot/Ab42 selectivity ranges [1]: b (b: 100 fold > selectivity ≥ 50 fold); IC50 [2]: 500 to 1000 nM

Question: For `Cc1ncc2sc(C(=O)N3CCCC3c3cccc(Br)c3)nn12` (stereo not shown) [Example 123, [2-(3-Bromo-phenyl)-pyrrolidin-1-yl]-(5-methyl-imidazo[5,1-b][1,3,4]thiadiazol-2-yl)-methanone], which Abtot/Ab42 selectivity ranges [1] is on record?
Answer: Its Abtot/Ab42 selectivity ranges is “d (d: 10 fold > selectivity)”.

Question: What about the IC50 [2] of the same molecule?
Answer: Its IC50 is 1000 to 2200 nM.
